Results published in PubChem BioAssay AID1259411 (Chemical Carcinogenesis Research Information System (CCRIS), 2018).
Active and inactive are the calls of the source. How the calls were made is not given here.

Tested on: rodent carcinogenicity bioassays, tumor incidence
Experiment: CCRIS carcinogenicity studies
Description: The CCRIS database contains chemical records with carcinogenicity, mutagenicity, tumor promotion, and tumor inhibition test results. It was developed by the National Cancer Institute (NCI). Data are derived from studies cited in primary journals, current awareness tools, NCI reports, and other sources. Test results have been reviewed by experts in carcinogenesis and mutagenesis.
CCRIS provides historical information from the years 1985 - 2011. It is no longer updated.
This is an archive assay for CCRIS carcinogenicity studies.

Measured: carcinogen call

CN(C)/N=N/c1nc[nH]c1C(N)=O
active: Species: RAT, Strain/Sex: BUFFALO/FEMALE, Route: ORAL, Dose: 0, 500, MG/KG IN DIET FOR 11 WK, Dose: 0, 500, MG/KG IN DIET FOR 11 WK, Tumor Site: Type of Lesion: MAMMARY GLAND: ADENOCARCINOMA, THYMUS GLAND: LYMPHOSARCOMA active; positive | Species: RAT, Strain/Sex: SPRAGUE-DAWLEY/FEMALE, Route: INTRAPERITONEAL, Dose: 0, 100, 250, 400 MG/RAT IN CITRATE-MANNITOL SOLN, Dose: 0, 100, 250, 400 MG/RAT IN CITRATE-MANNITOL SOLN, Tumor Site: Type of Lesion: MAMMARY GLAND: ADENOCARCINOMA active; positive | Species: RAT, Strain/Sex: SPRAGUE-DAWLEY/FEMALE, Route: ORAL, Dose: 346, 574, 740 MG/KG (TOTAL DOSE), Dose: 346, 574, 740 MG/KG (TOTAL DOSE), Tumor Site: Type of Lesion: MAMMARY GLAND: ADENOCARCINOMA, CARCINOMA, ADENOFIBROMA, THYMUS GLAND: LYMPHOSARCOMA, SPLEEN: LYMPHOSARCOMA, BRAIN: EPEND, Tumor Site: Type of Lesion: MAMMARY GLAND: ADENOCARCINOMA, CARCINOMA, ADENOFIBROMA, THYMUS GLAND: LYMPHOSARCOMA, SPLEEN: LYMPHOSARCOMA, BRAIN: EPEND active; positive | Species: RAT, Strain/Sex: SPRAGUE-DAWLEY/MALE, Route: ORAL, Dose: 608, 974 MG/KG (TOTAL DOSE), Tumor Site: Type of Lesion: MAMMARY GLAND: ADENOCARCINOMA, THYMUS GLAND: LYMPHOSARCOMA, SPLEEN: LYMPHOSARCOMA, Tumor Site: Type of Lesion: MAMMARY GLAND: ADENOCARCINOMA, THYMUS GLAND: LYMPHOSARCOMA, SPLEEN: LYMPHOSARCOMA active; positive

CC(=O)CN(CC(C)=O)N=O
active: Species: GUINEA PIG, Strain/Sex: STRAIN-13/MALE, Route: SUBCUTANEOUS, Dose: 70 MG/KG/WK FOR 2 WK FOLLOWED BY 1 WK NO TREATMENT THEN 20 MG/KG/WK FOR 2 WK, Tumor Site: Type of Lesion: LIVER: CHOLANGIOMA, CHOLANGIOCARCINOMA active; positive | Species: HAMSTER, Strain/Sex: SYRIAN/FEMALE, Route: SUBCUTANEOUS, Dose: 2.5, 5, 10 MG/KG, Dose: 2.5, 5, 10 MG/KG, Tumor Site: Type of Lesion: PANCREAS: DUCTAL ADENOMA, INTRADUCTAL CARCINOMA, ADENOCARCINOMA, LUNG: ADENOMA, ADENOCARCINOMA, SQUAMOUS CELL CARCINOMA;, Tumor Site: Type of Lesion: PANCREAS: DUCTAL ADENOMA, INTRADUCTAL CARCINOMA, ADENOCARCINOMA, LUNG: ADENOMA, ADENOCARCINOMA, SQUAMOUS CELL CARCINOMA active; positive | Species: HAMSTER, Strain/Sex: SYRIAN/MALE,FEMALE, Route: ORAL, Dose: 0.35, 0.7, 1.4% IN DRINKING WATER, Dose: 0.35, 0.7, 1.4% IN DRINKING WATER, Tumor Site: Type of Lesion: LIVER: CHOLANGIOMA, INTRADUCTAL CARCINOMA, CHOLANGIOCARCINOMA, GALL BLADDER: POLYP, COMMON BILE DUCT: POLYP, COMMON DUCT, Tumor Site: Type of Lesion: LIVER: CHOLANGIOMA, INTRADUCTAL CARCINOMA, CHOLANGIOCARCINOMA, GALL BLADDER: POLYP, COMMON BILE DUCT: POLYP, COMMON DUCT active; positive | Species: HAMSTER, Strain/Sex: SYRIAN/MALE, Route: SUBCUTANEOUS, Dose: 2.5, 5, 10 MG/KG, Dose: 2.5, 5, 10 MG/KG, Tumor Site: Type of Lesion: PANCREAS: DUCTAL ADENOMA, INTRADUCTAL CARCINOMA, ADENOCARCINOMA, LUNG: ADENOMA, ADENOCARCINOMA, GALL BLADDER: PAPILLARY, Tumor Site: Type of Lesion: PANCREAS: DUCTAL ADENOMA, INTRADUCTAL CARCINOMA, ADENOCARCINOMA, LUNG: ADENOMA, ADENOCARCINOMA, GALL BLADDER: PAPILLARY active; positive | Species: MOUSE, Strain/Sex: ICR/FEMALE, Route: SUBCUTANEOUS, Dose: 0, 10, 20, 40 MG/KG BW IN 1% GELATIN SOLUTION ON DAYS 1, 8, 15 AND 22 OF AGE (STUDY DURATION: 1 YR), Dose: 0, 10, 20, 40 MG/KG BW IN 1% GELATIN SOLUTION ON DAYS 1, 8, 15 AND 22 OF AGE (STUDY DURATION: 1 YR), Tumor Site: Type of Lesion: NASAL CAVITY: TUMOR, LUNG: TUMOR, LIVER: TUMOR, Tumor Site: Type of Lesion: NASAL CAVITY: TUMOR, LUNG: TUMOR, LIVER: TUMOR active; positive | Species: MOUSE, Strain/Sex: ICR/MALE, Route: SUBCUTANEOUS, Dose: 0, 10, 20, 40 MG/KG BW IN 1% GELATIN SOLUTION ON DAYS 1, 8, 15 AND 22 OF AGE (STUDY DURATION: 1 YR), Dose: 0, 10, 20, 40 MG/KG BW IN 1% GELATIN SOLUTION ON DAYS 1, 8, 15 AND 22 OF AGE (STUDY DURATION: 1 YR), Tumor Site: Type of Lesion: NASAL CAVITY: TUMOR, LUNG: TUMOR, LIVER: TUMOR, Tumor Site: Type of Lesion: NASAL CAVITY: TUMOR, LUNG: TUMOR, LIVER: TUMOR active; positive | Species: RAT, Strain/Sex: CD-1/FEMALE, Route: SUBCUTANEOUS, Dose: 0, 5.35, 10.7, 21.4 MG/KG 1/WK FOR LIFE (STUDY DURATION: LIFE), Dose: 0, 5.35, 10.7, 21.4 MG/KG 1/WK FOR LIFE (STUDY DURATION: LIFE), Tumor Site: Type of Lesion: NASAL CAVITY: TUMOR active; positive | Species: RAT, Strain/Sex: CD-1/MALE, Route: SUBCUTANEOUS, Dose: 0, 6.15, 12.3, 24.6 MG/KG 1/WK FOR LIFE (STUDY DURATION: LIFE), Dose: 0, 6.15, 12.3, 24.6 MG/KG 1/WK FOR LIFE (STUDY DURATION: LIFE), Tumor Site: Type of Lesion: NASAL CAVITY: TUMOR active; positive | Species: RAT, Strain/Sex: F344/FEMALE, Route: INTRAVESICULAR, Dose: 0, 0.8 MG IN 0.2 ML ETHANOL: DEIONIZED WATER (1:3) 2/WK FOR 30 WK (TOTAL DOSE 0.3 MMOL) (STUDY DURATION: LIFESPAN), Tumor Site: Type of Lesion: BLADDER: TRANSITIONAL CELL CARCINOMA, TRANSITIONAL CELL PAPILLOMA, LUNG: TUMOR, KIDNEY: MESENCHYMAL NEOPLASM, LIVER: TUM, Tumor Site: Type of Lesion: BLADDER: TRANSITIONAL CELL CARCINOMA, TRANSITIONAL CELL PAPILLOMA, LUNG: TUMOR, KIDNEY: MESENCHYMAL NEOPLASM, LIVER: TUM active; positive | Species: RAT, Strain/Sex: F344/FEMALE, Route: ORAL, Dose: 0, 55 MG/L DRINKING WATER 5 D/WK FOR 50 WK (TOTAL DOSE 275 MG) (STUDY DURATION: LIFESPAN), Tumor Site: Type of Lesion: LIVER: CARCINOMA, ANGIOSARCOMA, LUNG: TUMOR active; positive | Species: RAT, Strain/Sex: F344/FEMALE, Route: SUBCUTANEOUS, Dose: 0, 10 MG/KG/BW 2/WK FOR A TOTAL OF 11 DOSES BEGINNING AT 2 D OF AGE (STUDY DURATION: 26 WK), Tumor Site: Type of Lesion: LIVER: HEPATOCELLULAR CARCINOMA, KIDNEY: NEPHROBLASTOMA active; positive | Species: RAT, Strain/Sex: F344/MALE, Route: SUBCUTANEOUS, Dose: 0, 10 MG/KG/BW 2/WK FOR A TOTAL OF 11 DOSES BEGINNING AT 2 D OF AGE (STUDY DURATION: 26 WK), Tumor Site: Type of Lesion: LIVER: HEPATOCELLULAR CARCINOMA, KIDNEY: NEPHROBLASTOMA, TESTIS: GONADAL STROMAL TUMOR, Tumor Site: Type of Lesion: LIVER: HEPATOCELLULAR CARCINOMA, KIDNEY: NEPHROBLASTOMA, TESTIS: GONADAL STROMAL TUMOR active; positive | Species: RAT, Strain/Sex: MRC/MALE,FEMALE, Route: SUBCUTANEOUS, Dose: 2.5, 5, 10 MG/KG, Dose: 2.5, 5, 10 MG/KG, Tumor Site: Type of Lesion: THYROID GLAND: FOLLICULAR ADENOMA, CARCINOMA active; positive | Species: RAT, Strain/Sex: SPRAGUE-DAWLEY/FEMALE, Route: SUBCUTANEOUS, Dose: 0, 5.35, 10.7, 21.4 MG/KG BW IN 0.9% SALINE 1/WK FOR DURATION OF STUDY (STUDY DURATION: 96 WK), Dose: 0, 5.35, 10.7, 21.4 MG/KG BW IN 0.9% SALINE 1/WK FOR DURATION OF STUDY (STUDY DURATION: 96 WK), Tumor Site: Type of Lesion: KIDNEY (RENAL PELVIS): TUMOR, URETER: TUMOR, URINARY BLADDER: TUMOR, Tumor Site: Type of Lesion: KIDNEY (RENAL PELVIS): TUMOR, URETER: TUMOR, URINARY BLADDER: TUMOR active; positive | Species: RAT, Strain/Sex: SPRAGUE-DAWLEY/MALE, Route: SUBCUTANEOUS, Dose: 0, 6.15, 12.3, 24.6 MG/KG BW IN 0.9% SALINE 1/WK FOR DURATION OF STUDY (STUDY DURATION: 96 WK), Dose: 0, 6.15, 12.3, 24.6 MG/KG BW IN 0.9% SALINE 1/WK FOR DURATION OF STUDY (STUDY DURATION: 96 WK), Tumor Site: Type of Lesion: KIDNEY (RENAL PELVIS): TUMOR, URINARY BLADDER: TUMOR active; positive

CCC(=O)Oc1ccc(/C(CC)=C(\CC)c2ccc(OC(=O)CC)cc2)cc1
active: Species: RAT, Route: SUBCUTANEOUS, Tumor Site: Type of Lesion: PITUITARY GLAND active; positive
